Measured values reported in ChEMBL document CHEMBL5154907, “Discovery and Anti-Inflammatory Activity Evaluation of a Novel CDK8 Inhibitor through Upregulation of IL-10 for the Treatment of Inflammatory Bowel Disease In Vivo” (J Med Chem, 2022).
Active and inactive are the calls of the source. The rule behind the calls is not given here.

Assays:
[1] = Acute toxicity in 12 hr fasted ICR mouse assessed as toxic reaction at 2000 mg/kg, po measured daily for 7 days; assay type: organism-based; conditions: in vivo, 168 h, time 7 day
[2] = biological target: Cyclin-dependent kinase 8 (Homo sapiens) (UniProt P49336); assay: Binding affinity to CDK8 in human HCT-116 cells assessed as increase in thermal stability tolerance at 10 uM treated for 4 hrs followed by compound washout by CETSA assay; assay type: cell-based
Chain of Cyclin-dependent kinase 8 (Homo sapiens) (P49336 whole entry): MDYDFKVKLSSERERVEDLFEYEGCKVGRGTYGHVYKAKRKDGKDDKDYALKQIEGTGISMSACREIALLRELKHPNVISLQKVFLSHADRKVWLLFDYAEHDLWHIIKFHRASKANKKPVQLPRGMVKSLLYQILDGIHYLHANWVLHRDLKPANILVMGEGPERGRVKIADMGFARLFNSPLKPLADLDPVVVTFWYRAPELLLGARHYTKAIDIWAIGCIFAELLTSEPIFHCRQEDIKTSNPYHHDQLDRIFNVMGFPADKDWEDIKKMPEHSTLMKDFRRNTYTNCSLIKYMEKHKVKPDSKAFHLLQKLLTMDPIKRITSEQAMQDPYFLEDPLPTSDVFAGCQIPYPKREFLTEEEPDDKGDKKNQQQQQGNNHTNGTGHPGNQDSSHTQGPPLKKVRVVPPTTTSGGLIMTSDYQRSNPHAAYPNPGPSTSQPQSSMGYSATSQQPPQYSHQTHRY

[3] = biological target: Cyclin-dependent kinase 8 (Homo sapiens) (UniProt P49336); assay: Binding affinity to CDK8 in human HCT-116 cells assessed as reduction in protease-induced CDK8 degradation at 1 to 4 uM treated for 6 hrs followed by protease treatment for 30 mins by western blot analysis; assay type: cell-based; conditions: dose 1-4 µM, time 390.0 min, DDE = dose-dependent effect
[4] = tested on: BMDC; assay: Anti-inflammatory activity against R848 stimulated-mouse BMDC cells assessed as downregulation of IL-6 production by ELISA method; assay type: functional, cell-based
[5] = biological target: T1, Cyclin-dependent kinase 8 (Mus musculus) (UniProt Q8R3L8); assay: Inhibition of CDK8 in IFN-gamma-stimulated mouse BMDC cells assessed as STAT-1 phosphorylation at Ser727 at 1 to 4 uM treated for 2 hrs followed by IFN-gamma stimulation for 12 hrs by western blot analysis; assay type: cell-based; conditions: dose 1-4 µM, time 14.0 hrs
T1 sequence (whole entry): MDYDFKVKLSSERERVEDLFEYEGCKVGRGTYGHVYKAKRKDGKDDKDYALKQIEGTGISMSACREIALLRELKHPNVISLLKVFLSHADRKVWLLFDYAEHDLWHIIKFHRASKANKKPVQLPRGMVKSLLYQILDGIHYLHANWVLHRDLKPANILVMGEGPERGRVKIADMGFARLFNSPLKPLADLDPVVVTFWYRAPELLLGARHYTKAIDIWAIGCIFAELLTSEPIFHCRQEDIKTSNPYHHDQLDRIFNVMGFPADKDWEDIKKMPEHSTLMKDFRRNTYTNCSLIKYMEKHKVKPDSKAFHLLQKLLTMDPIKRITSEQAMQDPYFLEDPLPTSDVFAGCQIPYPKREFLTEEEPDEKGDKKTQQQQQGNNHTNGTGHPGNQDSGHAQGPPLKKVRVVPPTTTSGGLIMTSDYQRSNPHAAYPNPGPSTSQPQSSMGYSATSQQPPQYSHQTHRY

[6] = biological target: Cyclin-dependent kinase 8 (Homo sapiens) (UniProt P49336); assay: Inhibition of CDK8 in human HCT-116 cells assessed as STAT-1 phosphorylation at Ser727 at 1 to 4 uM treated for 24 hrs by western blot analysis; assay type: cell-based; conditions: dose 1-4 µM
[7] = biological target: Myeloid differentiation primary response protein MyD88 (Mus musculus) (UniProt P22366); assay: Inhibition of MyD88 expression in R848-stimulated mouse BMDC cells at 1 to 4 uM treated for 2 hrs followed by R848 stimulation for 12 hrs by western blot analysis; assay type: cell-based; conditions: dose 1-4 µM, time 14.0 hrs, DDE = dose-dependent effect
Chain of Myeloid differentiation primary response protein MyD88 (Mus musculus) (P22366 whole entry): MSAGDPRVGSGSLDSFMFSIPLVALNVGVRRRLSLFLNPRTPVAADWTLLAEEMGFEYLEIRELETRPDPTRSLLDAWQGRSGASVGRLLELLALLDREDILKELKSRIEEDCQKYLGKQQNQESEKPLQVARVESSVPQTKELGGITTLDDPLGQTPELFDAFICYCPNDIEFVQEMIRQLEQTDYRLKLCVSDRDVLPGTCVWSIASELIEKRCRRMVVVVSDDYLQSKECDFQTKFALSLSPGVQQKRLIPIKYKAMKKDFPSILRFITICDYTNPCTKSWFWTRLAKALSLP

[8] = Acute toxicity in 12 hr fasted ICR mouse assessed as body weight loss at 2000 mg/kg, po measured daily for 7 days; assay type: organism-based; conditions: in vivo, 168 h, time 7 day
[9] = Acute toxicity in 12 hr fasted ICR mouse assessed as effect on liver at 2000 mg/kg, po measured after 7 days by hematoxylin and eosin staining based histopathological analysis; assay type: organism-based; conditions: in vivo, 168 h, time 7 day
[10] = Acute toxicity in 12 hr fasted ICR mouse assessed as effect on lung at 2000 mg/kg, po measured after 7 days by hematoxylin and eosin staining based histopathological analysis; assay type: organism-based; conditions: in vivo, 168 h, time 7 day
[11] = Half life in Sprague-Dawley rat at 10 mg/kg, po measured for 3 to 1440 mins by HPLC analysis; assay type: ADME, organism-based; conditions: in vivo, time 3-1440 min
[12] = MRT in Sprague-Dawley rat at 5 mg/kg, iv measured for 3 to 1440 mins by HPLC analysis; assay type: ADME, organism-based; conditions: in vivo, time 3-1440 min
[13] = Cmax in Sprague-Dawley rat at 5 mg/kg, iv measured for 3 to 1440 mins by HPLC analysis; assay type: ADME, organism-based; conditions: in vivo
[14] = Cmax in Sprague-Dawley rat at 10 mg/kg, po measured for 3 to 1440 mins by HPLC analysis; assay type: ADME, organism-based; conditions: in vivo
[15] = AUC (0 to infinity) in Sprague-Dawley rat at 5 mg/kg, iv measured for 3 to 1440 mins by HPLC analysis; assay type: ADME, organism-based; conditions: in vivo
[16] = tested on: Mus musculus; assay: Anti-inflammatory activity in DSS-induced C57BL/6 mouse model of inflammatory bowel disease assessed as reduction in colitis development by measuring disease activity index score at 5 to 20 mg/kg, po administered measured after 7 days; assay type: functional, organism-based; conditions: dose 5-20 mg/kg, time 7.0 day, DDE = dose-dependent effect
[17] = tested on: Mus musculus; assay: Anti-inflammatory activity in C57BL/6 mouse model of inflammatory bowel disease assessed as decrease in DSS-induced neutrophil infiltration in colon tissue by measuring MPO activity at 5 to 20 mg/kg, po administered for 10 days; assay type: functional, organism-based; conditions: dose 5-20 mg/kg, time 10.0 day, DDE = dose-dependent effect
[18] = tested on: Mus musculus; assay: Anti-inflammatory activity in C57BL/6 mouse model of inflammatory bowel disease assessed as reduction in DSS-induced crypt loss in colon tissue at 5 to 20 mg/kg, po daily measured after 10 days by hematoxylin and eosin staining based histopathological analysis; assay type: functional, organism-based; conditions: dose 5-20 mg/kg, time 10.0 day
[19] = tested on: Mus musculus; assay: Anti-inflammatory activity in C57BL/6 mouse model of inflammatory bowel disease assessed as reduction in number of DSS-induced inflammatory cells in colon tissue at 5 to 20 mg/kg, po daily measured after 10 days by hematoxylin and eosin staining based histopathological analysis; assay type: functional, organism-based; conditions: dose 5-20 mg/kg, time 10.0 day
[20] = tested on: Mus musculus; assay: Anti-inflammatory activity in C57BL/6 mouse model of inflammatory bowel disease assessed as increase in DSS-induced IL-10 levels in serum administered orally daily measured after 10 days by ELISA method; assay type: functional, organism-based; conditions: dose 5-20 mg/kg, route po, time 10.0 day, DDE = dose-dependent effect
[21] = tested on: Mus musculus; assay: Anti-inflammatory activity in C57BL/6 mouse model of inflammatory bowel disease assessed as decrease in DSS-induced P38 phosphorylation in colon tissue at 5 to 20 mg/kg, po measured after 10 days by western blot analysis; assay type: functional, organism-based; conditions: dose 5-20 mg/kg, time 10.0 day, DDE = dose-dependent effect
[22] = tested on: Mus musculus; assay: Anti-inflammatory activity in DSS-induced C57BL/6 mouse model of inflammatory bowel disease assessed as increase in IL-10 expression in colon tissue at 5 to 20 mg/kg, po measured after 10 days by western blot analysis; assay type: functional, organism-based; conditions: dose 5-20 mg/kg, time 10.0 day
[23] = tested on: Mus musculus; assay: Anti-inflammatory activity in DSS-induced C57BL/6 mouse model of inflammatory bowel disease assessed as increase in JAK1 phosphorylation in colon tissue at 5 to 20 mg/kg, po measured after 10 days by western blot analysis; assay type: functional, organism-based; conditions: dose 5-20 mg/kg, time 10.0 day
[24] = tested on: Mus musculus; assay: Anti-inflammatory activity in DSS-induced C57BL/6 mouse model of inflammatory bowel disease assessed as increase in STAT3 phosphorylation in colon tissue at 5 to 20 mg/kg, po measured after 10 days by western blot analysis; assay type: functional, organism-based; conditions: dose 5-20 mg/kg, time 10.0 day
[25] = biological target: CDK8/Cyclin C (Homo sapiens) (UniProt P49336+P24863); assay: Inhibition of recombinant full length His tagged human CDK8/Cyclin C expressed in Baculovirus at 200 nM incubated for 60 mins in presence of ATP by ADP-Glo kinase assay

For CCc1ccccc1NC(=O)c1cncc(-c2ccc(C(=O)N3CCNCC3)cc2)c1, which Activity [1] is on record?
The Activity was “Non-Toxic”.

And the Activity [2]?
Its Activity is “Active”.

And the Activity [3]?
Its Activity is “Dde”.

What about the Activity [4] of the same compound?
The Activity was “Active”.

And the inhibition [5]?
The inhibition was “Active”.

And the inhibition [6]?
The inhibition was “Active”.

And the inhibition [7]?
Its inhibition is “Dde”.

What about the Activity [8] of the same compound?
Its Activity is “Non-Toxic”.

And the Activity [9]?
The Activity was “Non-Toxic”.

What about the Activity [10] of the same compound?
The Activity was “Non-Toxic”.

What about the half-life [11] of the same compound?
The half-life was 2.18 h.

And the MRT [12]?
Its MRT is 1.97 h.

And the Cmax [13]?
The Cmax was 528 ng/mL.

What about the Cmax [14] of the same compound?
The Cmax was 237 ng/mL.

And the AUC(0-inf) [15]?
Its AUC(0-inf) is 642 ng·h/mL.

What about the Activity [16] of the same compound?
The Activity was “Dde”.

And the Activity [17]?
Its Activity is “Dde”.

And the Activity [18]?
The Activity was “Active”.

And the Activity [19]?
The Activity was “Active”.

And the Activity [20]?
The Activity was “Dde”.

And the Activity [21]?
The Activity was “Dde”.

What about the Activity [22] of the same compound?
The Activity was “Active”.

What about the Activity [23] of the same compound?
Its Activity is “Active”.

And the Activity [24]?
Its Activity is “Active”.

What about the inhibition [25] of the same compound?
The inhibition was 85%.
